Patent publication US8372967B2, “Compounds and methods for modulating expression of GCCR” (Isis Pharmaceuticals, Inc., priority 2006, dated 2013)
Strand notation (5' to 3'): a small letter for the sugar, then the base; units joined by * are phosphorothioate-linked, units joined directly phosphodiester-linked; [ ] holds rarer units or linkages, { } end groups; capitals alone tell only the bases. e = 2'-O-(2-methoxyethyl) (MOE); [5mC] = 5-methylcytosine; d = 2'-deoxy (DNA)

Assays:
human SGLT2 = target: T1, human SGLT2 (Homo sapiens, UniProt P31639); conditions: Xenopus oocytes; cited from earlier work
T1 construct: host or cells: Xenopus oocytes
T1 sequence (P31639 1-672): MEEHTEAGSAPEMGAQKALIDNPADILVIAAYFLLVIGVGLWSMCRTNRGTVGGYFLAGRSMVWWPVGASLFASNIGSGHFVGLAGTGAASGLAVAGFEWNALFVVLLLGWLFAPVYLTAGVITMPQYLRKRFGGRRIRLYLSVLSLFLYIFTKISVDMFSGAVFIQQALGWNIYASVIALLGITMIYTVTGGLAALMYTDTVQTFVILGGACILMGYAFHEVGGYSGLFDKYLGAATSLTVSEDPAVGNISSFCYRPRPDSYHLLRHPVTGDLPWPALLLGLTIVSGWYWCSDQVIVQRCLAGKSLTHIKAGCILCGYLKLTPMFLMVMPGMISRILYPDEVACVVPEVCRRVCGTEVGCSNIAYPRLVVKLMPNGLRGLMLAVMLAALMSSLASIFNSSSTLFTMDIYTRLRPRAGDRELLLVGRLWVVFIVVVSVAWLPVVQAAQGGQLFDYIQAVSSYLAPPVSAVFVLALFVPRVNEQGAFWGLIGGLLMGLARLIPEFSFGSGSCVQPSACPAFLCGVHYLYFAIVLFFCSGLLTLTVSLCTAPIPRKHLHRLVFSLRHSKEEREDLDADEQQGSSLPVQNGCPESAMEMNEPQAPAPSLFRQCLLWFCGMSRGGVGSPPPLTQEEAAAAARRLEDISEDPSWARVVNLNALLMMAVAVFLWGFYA

mouse SGLT2 mRNA [1] = assay: Mouse SGLT2 mRNA in kidney, wing, gap and total length variations (Table 61); assay type: in vivo
Experimental: ISIS 3707171-10-1 MOE gapmer was used as a template to make sequence related oligos with varying motifs. The antisense compounds were designed to target different regions of the mouse or rat SGLT2 nucleic acid, using published sequences (GenBank accession number U29881.1, incorporated herein as SEQ ID NO: 1575, and GenBank accession number AJ292928.1, incorporated herein as SEQ ID NO: 1576, respectively).
The antisense compounds were analyzed for their effect on mouse SGLT2 mRNA levels. Data are ranges taken from three experiments in which mice were dosed twice per week for three weeks with 2.5, 0.5 or 0.1 umol/kg of the above MOE gapmers given by intraperitoneal injection. Mice were sacrificed 48 hours following last administration and evaluated for SGLT2 levels in kidney. SGLT2 mRNA levels were determined by RT, real-time PCR as described by other examples herein. PCR results were normalized to an internal ISIS control.

rat SGLT2 mRNA [2] = assay: Rat SGLT2 mRNA in kidney, 1-10-1 gapmers, 250 nmol/kg (Table 66); assay type: in vivo; conditions: 250 nmol/kg i.p. twice per week for three weeks, Sprague-Dawley rat kidney
Experimental: The effect of the above 1-10-1 gapmers (see Table 64 above) on rat SGLT2 mRNA levels. Data are taken from four experiments in which male Sprague-Dawley rats (170-200 g) were dosed twice per week for three weeks with 250 nmol/kg given by intraperitoneal injection. Rats were sacrificed 48 hours following last administration and evaluated for SGLT2 mRNA levels in kidney. Target levels were determined by RT, real-time PCR as described by other examples herein. PCR results were normalized to an internal ISIS control.

mouse SGLT2 mRNA [3] = assay: Mouse SGLT2 mRNA in kidney, 1-10-1 MOE gapmers, Balb/c mice (Table 65); assay type: in vivo
Experimental: The short antisense compounds were analyzed for their effect on mouse SGLT2 mRNA levels. Data was taken from three experiments in which Male 6-week old Balb/c mice were dosed twice per week for two weeks with 450, 150, or 50 nmol/kg of one of the above 1-10-1 MOE gapmers given by intraperitoneal injection. Mice were sacrificed 48 hours following last administration and evaluated for SGLT2 mRNA levels in kidney. Target levels were determined by RT, real-time PCR as described by other examples herein. PCR results were normalized to an internal ISIS control.

rat SGLT2 mRNA [4] = assay: Rat SGLT2 mRNA in kidney, 1-10-1 and 1-10-2 MOE gapmers, Sprague-Dawley rats (Table 63); assay type: in vivo
Excerpt: 1-10-1 and 1-10-2 MOE gapmer antisense compounds, provided in Table 62, were designed to target different regions of the mouse or rat SGLT2 RNA. All short antisense compounds in Table 62 are chimeric oligonucleotides (“gapmers”) either 12 or 13 nucleotides in length, composed of a central “gap” segment consisting of ten 2′-deoxynucleotides, which are flanked on the 5′ side by a one-nucleoside “wing” and on the 3′ side by a two or one-nucleotide “wing”. […] All cytidine residues are 5-methylcytidines.
The short antisense compounds were analyzed for their effect on rat SGLT2 mRNA levels. Data are ranges taken from three experiments in which Male Sprague-Dawley rats (170-200 g) were dosed twice per week for three weeks with 450, 150 or 50 nmol/kg of either a 1-10-1 or 1-10-2 MOE gapmer given by intraperitoneal injection. Rats were sacrificed 48 hours following last administration and evaluated for SGLT2 mRNA levels in kidney. Target levels were determined by RT, real-time PCR as described by other examples herein. PCR results were normalized to an internal ISIS control.

dog SGLT2 mRNA = assay: Dog SGLT2 mRNA levels in kidney (Table 73); assay type: in vivo; conditions: 1 mg/kg/wk dose
Experimental: (§1) ISIS 388625 is a 2-8-2 MOE Gapmer with sequence […] (SEQ ID NO: 246) (e.g. see Table 71). The effect of ISIS 388625 on dog SGLT2 mRNA levels. Data are taken from two dosing groups in which a total of nine male beagle dogs were dosed with either one or ten mg/kg/week of ISIS 388625 or saline given by subcutaneous injection twice weekly. On day 46 of the study all dogs were sacrificed and evaluated for SGLT2 levels in kidney. Target levels were determined by quantitative RT, real-time PCR as described by other examples herein. PCR results were normalized to an internal ISIS control.

[5] = HbA1c status in ZDF rat (Table 72); assay type: in vivo; conditions: ZDF rats, 400 nM/kg i.p. once a week for twelve weeks; compared to PBS and control
Experimental: (§2) ISIS 388625, 388626 and control oligo ISIS 388628 were analyzed for their effect on ZDF rat plasma glucose levels and HbA1c. The leptin receptor deficient Zucker diabetic fatty (ZDF) rat is a useful model for the investigation of type 2 diabetes. Diabetes develops spontaneously in these male rats at ages 8-10 weeks, and is associated with hyperphagia, polyuria, polydipsia, and impaired weight gain, symptoms which parallel the clinical symptoms of diabetes (Phillips M S, et al., 1996, Nat Genet. 13, 18-19). Six week old ZDF rats were injected intraperitoneally with short antisense compound at a dose of 400 nM/kg once a week for twelve weeks. Data are illustrated in Tables 71 and 72.

[6] = Plasma glucose in ZDF rat (Table 71); assay type: in vivo; conditions: ZDF rats, 400 nM/kg i.p. once a week for twelve weeks; compared to PBS and control
Experimental: as §2

rat SGLT2 mRNA [7] = assay: Rat SGLT2 mRNA in kidney, 1-10-1 and 2-8-2 MOE gapmer (Table 70); assay type: in vivo; conditions: Sprague-Dawley rat kidney
Experimental: The effect of ISIS 3796921-10-1 MOE gapmer and ISIS 388625 MOE 2-8-2 gapmer (see Table 70) on rat SGLT2 mRNA levels in vivo. […] Rats were sacrificed 48 hours following last administration and evaluated for SGLT2 levels in kidney. Target levels were determined by RT, real-time PCR as described by other examples herein. PCR results were normalized to an internal ISIS control.

mouse SGLT2 mRNA [8] = assay: Mouse SGLT2 mRNA in kidney, MOE versus Methyleneoxy BNA gapmers (Table 69); assay type: in vivo; conditions: Balb/c mouse kidney
Experimental: The effect of ISIS 3796921-10-1 MOE gapmer and ISIS 3886252-8-2 MOE gapmer are compared with the effect of ISIS 3921701-10-1 Methyleneoxy BNA Gapmer and ISIS 3921732-8-2 Methyleneoxy BNA Gapmer (see Table 69) on mouse SGLT2 mRNA levels in vivo. Data are taken from three experiments in which male 6-week old Balb/c mice were dosed twice per week for three weeks with 5, 25 and 125 nmol/kg of either the ISIS 3796921-10-1 MOE gapmer or the ISIS 3886252-8-2 MOE gapmer given by intraperitoneal injection. Mice were sacrificed 48 hours following last administration and evaluated for SGLT2 mRNA levels in kidney. Target levels were determined by RT, real-time PCR as described by other examples herein. PCR results were normalized to an internal ISIS control. The data are expressed as percent change (“+” indicates an increase, “−” indicates a decrease) relative to saline treated animals and are illustrated in Table 69.

[9] = Standard glucose tolerance test and urinary glucose excretion in dog; assay type: in vivo; conditions: standard glucose tolerance test, on average, compared to saline controls
Experimental: as §1
Even greater reduction can be achieved at slightly higher doses. […] Peak plasma glucose levels were decreased by over 50% on average and the subsequent drop in glucose was lessened compared to saline controls in a standard glucose tolerance test.

mouse SGLT2 mRNA [10] = assay: Mouse SGLT2 mRNA in kidney, additional 1-10-1 and 2-8-2 MOE gapmers (Table 68); assay type: in vivo; conditions: Balb/c mouse kidney
[11] = 0.1 umol/kg i.p. twice per week for three weeks
[12] = 0.5 umol/kg i.p. twice per week for three weeks

Compound: O=C(CCc1ccc(O)cc1)c1c(O)cc(O)cc1O[C@@H]1O[C@H](CO)[C@@H](O)[C@H](O)[C@H]1O [phlorizin]
- transport activity (human SGLT2): suppressed

Compound: ISIS 370717: TAGCCACCAACT 1-10-1 MOE gapmer, phosphorothioate, SGLT-2 (sugars from the 5' end e1 d10 e1, all phosphorothioate, methylation of C not given here)
- % change in SGLT2 expression relative to saline (mouse SGLT2 mRNA [1]; [11]): −55%
- % change in SGLT2 expression relative to saline (mouse SGLT2 mRNA [1]; [12]): −70%
- % change in SGLT2 expression relative to saline (rat SGLT2 mRNA [2]): −70%
- % change in SGLT2 expression relative to saline (mouse SGLT2 mRNA [3]; 50 nmol/kg i.p. twice per week for two weeks): −47.5%
- % change in SGLT2 expression relative to saline (mouse SGLT2 mRNA [3]; 150 nmol/kg i.p. twice per week for two weeks): −55%
- % change in SGLT2 expression relative to saline (mouse SGLT2 mRNA [3]; 450 nmol/kg i.p. twice per week for two weeks): −65%
- % change in SGLT2 expression relative to saline (rat SGLT2 mRNA [4]; 50 nmol/kg i.p. twice per week for three weeks): −55%
- % change in SGLT2 expression relative to saline (rat SGLT2 mRNA [4]; 150 nmol/kg i.p. twice per week for three weeks): −70%
- % change in SGLT2 expression relative to saline (rat SGLT2 mRNA [4]; 450 nmol/kg i.p. twice per week for three weeks): −70%

Compound: ISIS 388625: TGTTCCAGCCCA 2-8-2 MOE Gapmer, SGLT2 (eT*eG*dT*dT*d[5mC]*d[5mC]*dA*dG*d[5mC]*d[5mC]*e[5mC]*eA)
- reduction of SGLT2 mRNA (dog SGLT2 mRNA): greater than 80%
- HbA1C [5]: significantly reduced
- Plasma glucose levels [6]: significantly reduced
- % change in SGLT2 expression relative to saline (rat SGLT2 mRNA [7]; dose 3.125 umol/kg [sic] i.p. twice per week for three weeks): +25%
- % change in SGLT2 expression relative to saline (rat SGLT2 mRNA [7]; dose 12.5 umol/kg [sic] i.p. twice per week for three weeks): −15%
- % change in SGLT2 expression relative to saline (rat SGLT2 mRNA [7]; dose 50 umol/kg [sic] i.p. twice per week for three weeks): −65%
- % change in SGLT2 expression relative to saline (rat SGLT2 mRNA [7]; dose 200 umol/kg [sic] i.p. twice per week for three weeks): −80%
- SGLT2 mRNA, percent change relative to saline treated animals (mouse SGLT2 mRNA [8]; 5 nmol/kg i.p. twice per week for three weeks): −18%
- SGLT2 mRNA, percent change relative to saline treated animals (mouse SGLT2 mRNA [8]; 25 nmol/kg i.p. twice per week for three weeks): −47%
- SGLT2 mRNA, percent change relative to saline treated animals (mouse SGLT2 mRNA [8]; 125 nmol/kg i.p. twice per week for three weeks): −70%
- Peak plasma glucose levels decreased [9]: over 50%
- % change in SGLT2 expression relative to saline (mouse SGLT2 mRNA [10]; 0.02 umol/kg i.p. twice per week for three weeks): −65%
- % change in SGLT2 expression relative to saline (mouse SGLT2 mRNA [10]; [11]): −88%
- % change in SGLT2 expression relative to saline (mouse SGLT2 mRNA [10]; [12]): −90%
